These results are taken from article PMC10739329, “Correlation of bioactive marker compounds of an orally applied Morus alba root bark extract with toxicity and efficacy in BALB/c mice” (Frontiers in Pharmacology, 2023).

The nature of series [1]: UPLC-ESI-MS quantitation of sanggenons C and D in serum and tissue samples, acute toxicity study. It counts as in vivo, BALB/c mice. The note with it: for concentration at 3 h: BALB/c, mouse, serum, oral; for serum concentration: one (efficacy study) and three (acute toxicity study) hours after the last oral MA60 administration.
Series [2] is described as follows: MS/MS search for metabolites of sanggenons C and D in serum samples. It counts as in vivo, BALB/c mice. Here is the method:
In the present study, concentration of bioactive sanggenons C and D was determined in serum and tissue samples and correlated with the administered the doses of MA60. […] Already during dose finding and acute toxicity studies, a high variation in serum concentrations of the selected marker compounds was detected within all three dose groups (30, 100, and 300 mg/kg). No dose dependency could be observed regarding the serum concentrations. This might be due to i) inhomogeneities in the CMC suspension of the MA60 extract, ii) the inter-individual differences in the resorption of sanggenons, or iii) the formation of sanggenon metabolites: • (i) For oral gavage administration, MA60 was suspended in 0.3% carboxymethyl cellulose (CMC) as vehicle. This is based on literature data, where even a higher dose of up to 400 mg/kg of a 70% EtOH extract of M. alba root bark ([Lim et al., 2013]) was previously administered to mice per gavage feeding. […] In the present study, an MS/MS analysis was conducted to also search for metabolites of the selected marker compounds sanggenon C and sanggenon D. The search included (di)glucuronides and hydroxylated metabolites as well as further conjugates such as sulfated metabolites.

For series [3] the following is noted: in vivo; cited from earlier work.
The mark [4] stands for this setting: MA60 30 mg/kg oral, samples 26-30 in order, 3 h after last treatment.
Setting [5] is: MA60 100 mg/kg oral, samples 31-35 in order, 3 h after last treatment.
Where [6] appears, read: MA60 300 mg/kg oral, samples 36-40 in order, 3 h after last treatment.
[7] abbreviates: MA60 100 mg/kg oral once daily for seven days, samples 68-71 in order, sacrificed 24 h after last application.

Where “and” joins values, the source holds several entries; their conditions need not be identical. Equal entries are not always repeated. Where two headings read alike, the source gives them in different places.

For the molecule `CC(C)=CC[C@]12Oc3cc(O)c([C@H]4C=C(C)C[C@H](c5ccc(O)cc5O)[C@H]4C(=O)c4ccc(O)cc4O)c(O)c3C(=O)[C@@]1(O)Oc1cc(O)ccc12` [sanggenon C], the concentration at 3 h was less than 9.1 ng/mL in series [1] (30 mg/kg, MA60 30 mg/kg oral once daily 7 days, 3 h after last treatment, read-out: amount of sanggenon C in serum (dose group)); 4.97 ng/mL in series [1] (30 mg/kg, MA60 30 mg/kg oral, samples 26-30 in order, 3 h after last treatment, read-out: quantified amount of sanggenon C serum, individual samples); 7.94 to 31.5 ng/mL in series [1] (100 mg/kg, MA60 100 mg/kg oral once daily 7 days, 3 h after last treatment, read-out: amount of sanggenon C in serum (dose group)); 21.2 to 227 ng/mL in series [1] (300 mg/kg, MA60 300 mg/kg oral once daily 7 days, 3 h after last treatment, read-out: amount of sanggenon C in serum (dose group)); less than 2 ng/mL in series [1] (mice sacrificed 3 hours after the last application, read-out: average serum concentration of sanggenon C). Also, the “quantified amount of sanggenon C serum, individual samples” value is “n.f. (3×) and 9.10 ng/mL” in series [1] (setting [4]); 7.94 ng/mL and 9.28 ng/mL and 31.53 ng/mL and 11.17 ng/mL and 13.02 ng/mL in series [1] (setting [5]); 25.74 ng/mL and 21.21 ng/mL and 227.26 ng/mL and 24.13 ng/mL and 103.00 ng/mL in series [1] (setting [6]). The serum concentration entry in series [1] is given as “less than 1%”. Moreover, the “metabolites ((di)glucuronides, hydroxylated, sulfated conjugates) in serum samples” value in series [2] (mouse, in vivo, po) is reported as “neither the corresponding masses nor the phase-II-conjugates could be detected”. Further, the “serum concentrations of sanggenon C (group)” value (MA60 100 mg/kg oral, after 24 h (#68-#71), below this value or not detectable) is given as “below 2.77 ng/mL”.

Consider `C=C(C)[C@H](CC=C(C)C)Cc1c(O)cc(OC)c(C(=O)/C=C/c2ccc(O)cc2O)c1O` [kuraridin], for which the “metabolites found in rat serum” value in series [3] is “mono- and di-glucuronides as well as hydroxylated derivatives”.

With sanggenon D, the “quantified amount of sanggenon D liver, individual samples” value (shortened to “quantified amount of sanggenon D liver”) in series [1] (setting [4]) is reported as “n.f”; the “quantified amount of sanggenon D liver” value in series [1] (setting [5]) was “n.f. and 34.18 ng/mL and 26.97 ng/mL”; the “quantified amount of sanggenon D liver” value in series [1] (setting [6]) is 70.13 ng/mL and 89.18 ng/mL and 979.27 ng/mL and 996.87 ng/mL and 447.53 ng/mL; the “quantified amount of sanggenon D liver” value under setting [7] is given as “n.f”. Also, the “quantified amount of sanggenon D lung, individual samples” value (shortened to “quantified amount of sanggenon D lung”) in series [1] (setting [4]) was “n.f. (4×) and 1,005.12 ng/mL”; the “quantified amount of sanggenon D lung” value in series [1] (setting [5]) was “n.f. (2×) and 2,980.27 ng/mL and 343.27 ng/mL and 10,306.71 ng/mL”; the “quantified amount of sanggenon D lung” value in series [1] (setting [6]) is reported as “n.f”; the “quantified amount of sanggenon D lung” value under setting [7] is “n.f”; the “quantified amount of sanggenon D lung” value (MA60 100 mg/kg oral, samples 64-67 in order, sacrificed 1 h after treatment) is “n.f”. In addition, the “sanggenon D concentration in liver tissues” value in series [1] (high dose group (300 mg/kg), #38 and #39) is given as roughly 1 µg/mL. Also, the “sanggenon D in liver samples” value in series [1] (low dose group (MA60 30 mg/kg oral)) is recorded as “not detected”. The serum concentration result in series [1] is recorded as “less than 1%”. In series [2] (MS/MS analysis after oral MA60), the “metabolites ((di)glucuronides, hydroxylated, sulfated conjugates) in serum samples” value was “neither the corresponding masses nor the phase-II-conjugates could be detected”. Besides, the “sanggenon D in liver” value runs as follows: (MA60 100 mg/kg oral, after 24 h) “could not be determined”; (MA60 100 mg/kg oral, mice sacrificed after 1 h) “high amount”.
